Like-named read-outs stand apart in the source and are kept apart here.
Tested on: Wnt/β-catenin pathway
Assay: dual-luciferase TCF/LEF reporter assay, LiCl-activated, HEK293 cells
Assay type: cell-based
Description: Lithium chloride (LiCl), which has been previously established as an activator of the Wnt/β-catenin pathway through its direct and indirect effects on GSK3β was used for pathway activation. The inhibition of the Wnt/β-catenin pathway by a compound may be determined after its incubation with cells for 24 hours.
The assay provided herein is a dual-luciferase assay to measure Wnt/β-catenin pathway activation using a TCF/LEF responsive reporter construct similar to that described previously (Thorne et al., 2010).

[1] = Homo sapiens, HEK293, Table 4, @ 1 μM, read-out: IC50 (nM) or remaining activity at 1 μM: remaining activity
[2] = Homo sapiens, HEK293, Table 5, read-out: IC50 (nM) or remaining activity at 1 μM: IC50
[3] = Homo sapiens, HEK293, Table 6, read-out: IC50 (nM) or remaining activity at 1 μM: IC50
[4] = Homo sapiens, HEK293, 24 h, At 1 μM concentration, remaining Wnt signaling activity, read-out: RLU % (Relative Light Units in reporter gene assays)

SMILES: Cc1ccc(-n2c(C)cc(C(=O)Nc3ccccn3)c2C)cc1 [Compound 14, 2,5-dimethyl-N-(pyridin-2-yl)-1-(p-tolyl)-1H-pyrrole-3-carboxamide]
- activity at 1 µM [1]: 79.8%

SMILES: Cc1ccc(-n2c(C)cc(C(=O)Nc3cnccn3)c2C)cc1 [Compound 15, 2,5-Dimethyl-N-(pyrazin-2-yl)-1-(p-tolyl)-1H-pyrrole-3-carboxamide]
- activity at 1 µM [1]: 112%

SMILES: Cc1ccc(-n2c(C)cc(C(=O)Nc3nc(-c4ccccc4)cs3)c2C)cc1 [Compound 16, 2,5-dimethyl-N-(4-phenylthiazol-2-yl)-1-(p-tolyl)-1H-pyrrole-3-carboxamide]
- IC50 (Homo sapiens, HEK293, Table 4, LiCl-mediated WNT signaling, read-out: IC50 (nM) or remaining activity at 1 μM: IC50): 379 nM

SMILES: Cc1ccc(-n2c(C)cc(C(=O)NCc3ccccc3)c2C)cc1 [Compound 17, N-benzyl-2,5-dimethyl-1-(p-tolyl)-1H-pyrrole-3-carboxamide]
- activity at 1 µM [1]: 93%

SMILES: Cc1ccc(-n2nnc(C(=O)Nc3ccccn3)c2C)cc1 [Compound 20, 5-Methyl-N-(pyridin-2-yl)-1-(p-tolyl)-1H-1,2,3-triazole-4-carboxamide]
- activity at 1 µM (Homo sapiens, HEK293, Table 5, @ 1 μM, read-out: IC50 (nM) or remaining activity at 1 μM: remaining activity): 100%

SMILES: Cc1ccc(-n2nnc(C(=O)Nc3cccc(C)n3)c2C)cc1 [Compound 21, 5-Methyl-N-(6-methylpyridin-2-yl)-1-(p-tolyl)-1H-1,2,3-triazole-4-carboxamide]
- IC50 [2]: 273 nM

SMILES: Cc1ccc(-n2nnc(C(=O)Nc3nc(-c4ccccc4)c(-c4ccccc4)s3)c2C)cc1 [Compound 22, N-(4,5-diphenylthiazol-2-yl)-5-methyl-1-(p-tolyl)-1H-1,2,3-triazole-4-carboxamide]
- IC50 [2]: 1000 nM

SMILES: Cc1ccc(-n2nnc(C(=O)Nc3cc(C)no3)c2C)cc1 [Compound 24, 5-Methyl-N-(3-methylisoxazol-5-yl)-1-(p-tolyl)-1H-1,2,3-triazole-4-carboxamide]
- IC50 [2]: 48000 nM

SMILES: Cc1ccc(-n2nnc(C(=O)NCc3ccccn3)c2C)cc1 [Compound 25, 5-Methyl-N-(pyridin-2-ylmethyl)-1-(p-tolyl)-1H-1,2,3-triazole-4-carboxamide]
- IC50 [2]: > 1000 nM

SMILES: Cc1ccc(-n2nnc(C(=O)Nc3ccc4c(=O)cc(C)oc4c3)c2C)cc1 [Compound 26, 5-Methyl-N-(2-methyl-4-oxo-4H-chromen-7-yl)-1-(p-tolyl)-1H-1,2,3-triazole-4-carboxamide]
- IC50 [2]: > 1000 nM

SMILES: Cc1ccc(-n2nnc(C(=O)Nc3ccc4ccccc4n3)c2C)cc1 [Compound 27, 5-Methyl-N-(quinolin-2-yl)-1-(p-tolyl)-1H-1,2,3-triazole-4-carboxamide]
- activity at 1 µM (Homo sapiens, HEK293, Table 6, @ 1 μM, read-out: IC50 (nM) or remaining activity at 1 μM: remaining activity): 56.4 ± 2%

SMILES: Cc1ccccc1-n1nnc(C(=O)Nc2ccc3ccccc3n2)c1C [Compound 28, 5-Methyl-N-(quinolin-2-yl)-1-(o-tolyl)-1H-1,2,3-triazole-4-carboxamide]
- IC50 [3]: 6.3 nM

SMILES: Cc1ccccc1-n1nnc(C(=O)Nc2nc3ccccc3s2)c1C [Compound 29, N-(benzo[d]thiazol-2-yl)-5-methyl-1-(o-tolyl)-1H-1,2,3-triazole-4-carboxamide]
- IC50 (Table 7, read-out: IC50): 34 nM

SMILES: Cc1ccccc1-n1nnc(C(=O)Nc2nc(-c3ccccc3)cs2)c1C [Compound 30, 5-Methyl-N-(4-phenylthiazol-2-yl)-1-(o-tolyl)-1H-1,2,3-triazole-4-carboxamide]
- IC50 (Table 7, read-out: IC50): 22000 nM

SMILES: Cc1ccccc1-n1nnc(C(=O)Nc2ccc3ccccc3c2)c1C [Compound 31, 5-Methyl-N-(naphthalen-2-yl)-1-(o-tolyl)-1H-1,2,3-triazole-4-carboxamide]
- IC50 (Table 7, read-out: IC50): 471 nM

SMILES: Cc1ccc(-n2nnc(C(=O)Nc3ccc4ccccc4n3)c2C)c(C)c1 [Compound 32, 1-(2,4-Dimethylphenyl)-5-methyl-N-(quinolin-2-yl)-1H-1,2,3-triazole-4-carboxamide]
- IC50 [3]: 130 nM

SMILES: Cc1c(C(=O)Nc2ccc3ccccc3n2)nnn1-c1ccccc1F [Compound 33, 1-(2-Fluorophenyl)-5-methyl-N-(quinolin-2-yl)-1H-1,2,3-triazole-4-carboxamide]
- IC50 [3]: 6.5 nM

SMILES: Cc1c(C(=O)Nc2ccc3ccccc3n2)nnn1-c1ccccc1C#N [Compound 34, 1-(2-Cyanophenyl)-5-methyl-N-(quinolin-2-yl)-1H-1,2,3-triazole-4-carboxamide]
- IC50 [3]: 76 nM

SMILES: COc1ccccc1-n1nnc(C(=O)Nc2ccc3ccccc3n2)c1C [Compound 35, 1-(2-Methoxyphenyl)-5-methyl-N-(quinolin-2-yl)-1H-1,2,3-triazole-4-carboxamide]
- IC50 [3]: 88 nM

SMILES: Cc1c(C(=O)Nc2ccc3ccccc3n2)nnn1-c1ccccc1Br [Compound 36, 1-(2-Bromophenyl)-5-methyl-N-(quinolin-2-yl)-1H-1,2,3-triazole-4-carboxamide]
- IC50 [3]: 10 nM

SMILES: Cc1c(C(=O)Nc2ccc3ccccc3n2)nnn1-c1ccccc1N1CCOCC1 [Compound 37, 5-Methyl-1-(2-morpholinophenyl)-N-(quinolin-2-yl)-1H-1,2,3-triazole-4-carboxamide]
- IC50 [3]: > 1000 nM

SMILES: Cc1c(C(=O)Nc2ccc3ccccc3n2)nnn1-c1ccccc1-c1ccccc1 [Compound 38, 1-([1,1′-biphenyl]-2-yl)-5-methyl-N-(quinolin-2-yl)-1H-1,2,3-triazole-4-carboxamide]
- IC50 [3]: 52000 nM

SMILES: CC(=O)c1ccccc1-n1nnc(C(=O)Nc2ccc3ccccc3n2)c1C [Compound 39, 1-(2-Acetylphenyl)-5-methyl-N-(quinolin-2-yl)-1H-1,2,3-triazole-4-carboxamide]
- IC50 [3]: 814 nM

SMILES: Cc1c(C(=O)Nc2ccc3ccccc3n2)nnn1-c1ccccc1C(N)=O [Compound 40, 1-(2-Carbamoylphenyl)-5-methyl-N-(quinolin-2-yl)-1H-1,2,3-triazole-4-carboxamide]
- IC50 [3]: > 100000 nM

SMILES: Cc1c(C(=O)Nc2ccc3ccccc3n2)nnn1-c1ccc(F)cc1[N+](=O)[O-] [Compound 41, 1-(4-Fluoro-2-nitrophenyl)-5-methyl-N-(quinolin-2-yl)-1H-1,2,3-triazole-4-carboxamide]
- IC50 [3]: 5000 nM

SMILES: Cc1cccc(-n2nnc(C(=O)Nc3ccc4ccccc4n3)c2C)c1C [Compound 42, 1-(2,3-Dimethylphenyl)-5-methyl-N-(quinolin-2-yl)-1H-1,2,3-triazole-4-carboxamide]
- IC50 [3]: 567 nM

SMILES: Cc1c(C(=O)Nc2ccc3ccccc3n2)nnn1-c1cccc2ccccc12 [Compound 43, 5-Methyl-1-(naphthalen-1-yl)-N-(quinolin-2-yl)-1H-1,2,3-triazole-4-carboxamide]
- IC50 [3]: 4000 nM

SMILES: Cc1c(C(=O)Nc2ccc3ccccc3n2)nnn1-c1cccc(Cl)c1 [Compound 44, 1-(3-Chlorophenyl)-5-methyl-N-(quinolin-2-yl)-1H-1,2,3-triazole-4-carboxamide]
- IC50 [3]: 731 nM

SMILES: CCc1c(C(=O)Nc2ccc3ccccc3n2)nnn1-c1ccccc1F [Compound 45, 5-Ethyl-1-(2-fluorophenyl)-N-(quinolin-2-yl)-1H-1,2,3-triazole-4-carboxamide]
- IC50 (Table 7, read-out: IC50): 47 nM

SMILES: CC(C)c1c(C(=O)Nc2ccc3ccccc3n2)nnn1-c1ccccc1F [Compound 46, 1-(2-Fluorophenyl)-5-isopropyl-N-(quinolin-2-yl)-1H-1,2,3-triazole-4-carboxamide]
- IC50 (Table 7, read-out: IC50): 177 nM

SMILES: Cc1ccc(-n2c(C)cc(C(=O)NCc3ccccc3)c2C)cc1 [YW1104, N-Benzyl-2,5-dimethyl-1-(p-tolyl)-1H-pyrrole-3-carboxamide]
- activity at 1 µM [4]: 92.9%
- IC50 (Homo sapiens, HEK293, Table 3, values in μM, read-out: IC50): 49000 nM

SMILES: Cc1ccc(-n2c(C)cc(C(=O)Nc3ccccn3)c2C)cc1 [YW1109, 2,5-Dimethyl-N-(pyridin-2-yl)-1-(p-tolyl)-1H-pyrrole-3-carboxamide]
- activity at 1 µM [4]: 79.8%

From US12378220B2, “WNT signaling pathway inhibitors for treatments of disease” (University of Maryland, Baltimore, priority 2016, dated 2025)
